This is an account of results in patent US4320127A, “Pyrido[3,2-e]-as-triazines” (Edyt Gyogyszervegyeszeti Gyar, priority 1979, dated 1982).

The structures appear in SMILES notation. Structures can show the parent of a compound that is named as a salt. Where two headings read alike, the source gives them in different places.

The test system of series [1] is carrageenin oedema of the hind paw. As to the kind of experiment: antiphlogistic (oedema-inhibiting) effect, carrageenin paw oedema. The class given is in vivo, rats. The settings on record: for ED30: Rattus norvegicus; for Therapeutical index: carrageenin oedema. The protocol: The antiphlogistic (oedema-inhibiting) effect was tested on rats. 0.1 ml of a 1% carrageenin solution were injected into the plantar region of one of the hind paws. The volume of the paw was measured just before and 3 hours after the introduction of oedema-provoking agent by a mercury plethysmometer.

The subject of series [2] is tetrabenazine. As to the kind of experiment: tetrabenazine antagonism (Brodie et al.). Format: in vivo. The note with it: mice; for ED50: Mus musculus, oral administration; for Therapeutic index: tetrabenazine antagonism, oral.
Series [3] has as its system reserpine. As to the kind of experiment: reserpine antagonism (Brodie et al.). The class given is in vivo. The settings on record: mice; for ED50: Mus musculus, oral administration; for Therapeutic index: reserpine antagonism, oral.
The subject of series [4] is motility of mice. As to the kind of experiment: effect on the motility of mice in a Dews apparatus (Borsy et al.). The settings on record: for ED50: Mus musculus, po; for Therapeutical index: motility, mice, oral.
Excerpt: The effect of the compounds on the motility of mice was orally tested in a Dews apparatus, by the method of Borsy et al. (Arch. Int. Pharmacodyn. 124 1-2 (1960). The ED50 values and the therapeutical indices are listed in Table 2.
A short description of series [5]: in vivo. The note with it: mouse. The protocol: The toxicity of the new compounds according to the invention was determined on mice after oral administration.
Series [6] concerns hexobarbital-narcosis. As to the kind of experiment: effect on the duration of hexobarbital-narcosis (Kaergaard). The note with it: for ED50: Mus musculus, po; for Therapeutical index: hexobarbital-narcosis, mice, oral.
Excerpt: The effect of the compounds exerted on the duration of hexobarbital-narcosis was orally tested on mice by the method of Kaergaard (Arch. Int. Pharmacodyn. 2 170 (1967)).
Series [7] relates to acetic acid writhing. As to the kind of experiment: analgesic effect, acetic acid writhing test. Format: in vivo. The note with it: mice, oral; for ED50: Mus musculus, analgesic. The protocol: The analgesic effect of the new compounds was determined on mice at oral administration by the acetic acid writhing test.
In general terms: Writhing tests count abdominal constrictions after an irritant is injected.

Setting [8] is: dosage inhibiting the inflammation by 30%, rats, 0.1 ml of 1% carrageenin, 3 hours, read-out: ED30.

In series [1] (3 h), `CC(=O)Oc1ccccc1C(=O)O` [Acetylsalicylic acid, reference compound] had an ED30 of 180 mg/kg.

One may read the ED50 as the dose that gives a 50% effect, or the effect in half of the subjects. The low end stands for greater potency, the high end for weaker potency. In series [2], `CN(C)CCC=C1c2ccccc2CCc2ccccc21` [Amitriptyline, reference compound] came in with an ED50 of 12 mg/kg and a Therapeutic index of 18.75. In series [3], this compound gave an ED50 of 65 mg/kg and a Therapeutic index of 3.46.

As a reminder, the LD50 is the dose expected to kill half of the subjects tested. With `CCCCCCC1=Nc2cccnc2N(C(=O)CC)N1.Cl` [Example 1, 3-n-hexyl-1-propionyl-1,2-dihydropyrido[3,2-e]-as-triazine hydrochloride], the 50% effective dose (ED50) was roughly 200 mg/kg in series [4], 300 mg/kg in series [2], 300 mg/kg in series [3] and roughly 400 mg/kg in series [6]. Also, the Therapeutical index in series [4] was 7.5; in series [1] (rats), 7.5; in series [6] it was “about 5”. Moreover, in series [1] (setting [8]), the ED30 was determined as 200 mg/kg. Further, the Therapeutic index in series [2] and in series [3] was 5 each time. The same compound came in with an LD50 in series [5] (mice, oral administration) of 1500 mg/kg.

With `CCC(=O)N1NC(c2ccc(OC)cc2)=Nc2cccnc21` [Example 5, 3-anisyl-1-propionyl-1,2-dihydropyrido[3,2-e]-as-triazine hydrochloride], the ED50 in series [4] is roughly 170 mg/kg; in series [2], 80 mg/kg; in series [3] it was 170 mg/kg; in series [6] it was roughly 170 mg/kg; in series [7], 52 mg/kg. The Therapeutical index is on record as 4.4 in series [4], 10 in series [1] (rats), 4.4 in series [6] and 14.4 in series [7]. The ED30 in series [1] (setting [8]) was 75 mg/kg. The Therapeutic index in series [2] was found to be 9.4; in series [3] it was 4.4. For the same compound, in series [5] (mice, oral administration), the LD50 is 750 mg/kg.

Turning to `CCC(=O)N1NC(c2cc(OC)c(OC)c(OC)c2)=Nc2cccnc21.Cl` [Example 6, 3-(3',4',5'-trimethoxyphenyl)-1-propionyl-1,2-dihydropyrido[3,2-e]-as-triazine hydrochloride], the ED50 was roughly 400 mg/kg in series [4], roughly 350 mg/kg in series [6] and 215 mg/kg in series [7]. Further, the Therapeutical index entry in series [4] is reported as “about 5”; in series [1] (rats), 12.9; in series [6], 5.7; in series [7] it was 9.3. Further, the ED30 in series [1] (setting [8]) was roughly 155 mg/kg. The LD50 in series [5] (mice, oral administration) was found to be 2000 mg/kg.

`CCC(=O)N1NC(CCc2ccccc2)=Nc2cccnc21` [Example 7, 3-phenetyl-1-propionyl-1,2-dihydropyrido-[3,2-e]-as-triazine]: the ED50 in series [4], in series [6] and in series [7] was greater than 400 mg/kg each time. The Therapeutical index entry is on record as “under 5” in series [4], “below 5” in series [6] and “below 5” in series [7]. In addition, the LD50 in series [5] (mice, oral administration) was determined as 2000 mg/kg.

Turning to `CCCCCCC1=Nc2cccnc2N(C(=O)c2cccnc2)N1` [Example 11, 3-n-hexyl-1-nicotinoyl-1,2-dihydropyrido-[3,2-e]-as-triazinedihydrochloride], the ED50 is roughly 200 mg/kg in series [4], 140 mg/kg in series [6] and roughly 400 mg/kg in series [7]. Besides, the Therapeutical index entry in series [4] was “about 10”; in series [6], 14.3; in series [7] it was 5. Moreover, the 50% lethal dose (LD50) in series [5] (po) was 2000 mg/kg.

`CCCCC1C(=O)N2C(c3ccccc3)=Nc3cccnc3N2C1=O` (stereo not shown) [Example 13, 2-butyl-4-phenylpyrazolo[1,2-a]pyrido[3,2-e]-as-triazine-1,3-dione]: the ED30 in series [1] (setting [8]) is greater than 400 mg/kg. Further, the Therapeutical index result in series [1] (rats) is on record as “below 5”. The compound also displayed an LD50 in series [5] (po) of 2000 mg/kg. For the same compound, in series [7], the ED50 is greater than 400 mg/kg and the Therapeutical index entry was “below 5”.

For `CCCCCCC1=Nc2cccnc2N(C(=O)c2ccccc2)N1.Cl` [Example 18, 3-hexyl-1-benzoyl-1,2-dihydropyrido[3,2-e]-as-triazine hydrochloride], in series [1] (setting [8]), the ED30 is roughly 70 mg/kg. Also, the Therapeutical index in series [1] (rats) is on record as 5.4; in series [6], 5; in series [7], 10. For the same compound, the ED50 in series [2] was 10 mg/kg; in series [3], 30 mg/kg; in series [6], 80 mg/kg; in series [7] it was roughly 38 mg/kg. The Therapeutic index was found to be 38 in series [2] and 12.7 in series [3]. The LD50 in series [5] (mice, oral administration) came out at 380 mg/kg.

On to `CCCC(C)(COC(N)=O)COC(N)=O` [Meprobamate, reference compound], for which, in series [4], the ED50 was 270 mg/kg and the Therapeutical index was determined as 4.1. In series [6], this compound came in with an ED50 of 260 mg/kg and a Therapeutical index of 4.2.

Take `CC(=O)Nc1ccc(O)cc1` [Paracetamol, reference compound]: the 50% effect level in series [7] (ED50) was put at a dose of 180 mg/kg.
